This is an account of results in US11576902B2, “Inhibition of COVID-19 virus” (Ankh Life Sciences Limited, priority 2020, dated 2023).

Molecules are shown by their SMILES.

In data set [1] the test system is SARS-CoV-2 isolate USA-WA1/2020. The data set is described as follows: RT-PCR assay of viral load (viral RNA copy number in cell supernatant). It counts as cell-based.
Data set [2] shares this test system. Description: Virus plaque formation assay. In kind it is cell-based.
Data set [3] concerns Vero-E6 cells.
Experimental: Cytotoxicity was measured using Promega™ CytoTox 96™ Nonradioactive Cytotoxicity Assay (cat #G1780, Promega, Madison, Wis., USA).
Cytotoxicity was measured using the Promega™ CytoTox 96™ Nonradioactive Cytotoxicity Assay kit (cat #G1780, Promega, Madison, Wis., USA) in 50 μL reactions and 96-well format (cat #161093, Thermo Fisher Scientific, Waltham, Mass., USA) according to the manufacturer's protocol, except we used 20 μL of 10× Lysis Solution per 100 μL of sample and incubated at 37° C. for 30 minutes to generate the maximum LDH release control. The assay was measured using a BioTeK Synergy™ HT plate reader (model #7091000, BioTek, Winooski, Vt., USA) at an optical density of 490 nm (OD490). Cytotoxicity was measured for ≤60 μM Cmpd. x for all three cell lines (LLC-MK2, Vero E6, and Calu-3). LLC-MK2 cells were assessed for cytotoxicity at 5 days, whereas Vero E6 and Calu-3 cells were assessed for cytotoxicity every 24 hours from 1-5 days.

For the compound `COc1ccc2c3c([nH]c2c1)C(CCCC1=NCCc2c1[nH]c1cc(OC)ccc21)=NCC3` [GZ440-6, 1,3-bis(7-methoxy-4,9-dihydro-3H-pyrido[3,4-b]indol-1-yl)propane], the “viral numbers (RNA copy number)” value in data set [1] (40 μM (P<0.05), FIG. 3C) is listed as “clear reduction in viral numbers”. In data set [1] (higher concentrations (20 and 40 μM), 120 hours after infection), the “viral load (viral RNA levels)” value was “decreased viral load”. The “viral load (viral RNA levels / viral numbers)” value in data set [1] (lower concentrations (2, 5, 10 μM), 120 hours after infection, listed as compound of the invention) is listed as “no consistent reduction of viral numbers”. Besides, the “inhibition of plaque formation” value is on record as “negligible inhibition” in data set [2] (2.0 μM, 5.0 μM and 10.0 μM, Vero-E6 cells, 120 h after infection); “inhibition of plaque formation was significant” in data set [2] (20 μM and above, Student's T-Test vs. Camostat/E64d P<0.05). The average cytotoxicity values result in data set [3] is “not elevated above controls”.
